Assay results published in patent US20240409880A1, “METHODS FOR INCREASING ALGAE PRODUCTIVITY USING HIGH SILICA CONCENTRATIONS” (Global Algae Technology, LLC, priority 2023, published 2024).

Tested on: Nitzschia inconspicua
Experiment: Cultivation of Nitzschia inconspicua in an open raceway pond at high silica loading, lipid content of harvested slurry
Assay type: cell-based
Experimental: Nitzschia inconspicua was cultivated at pH 9.6 with a silica loading of 10-11 mM in an open raceway pond for 20 days. Silica was added to the culture at a concentration of 1-3 mM each day to maintain the 10-11 mM silica loading as the algae grew and the batch volume increased. The silica loading was reduced to below 5 mM by diluting the culture without adding silica. The third day after reducing the silica loading, the loading was 2 mM. The algae slurry was harvested on the third day and analyzed for lipid content. The lipid content was 47% of the ash-free dry weight of the biomass. This is a substantial increase in lipid content compared to the typical 5-10% lipid content when the algae is grown in standard media with silica concentrations below 500 μM.

## O=[Si]=O [silica]
Algae grown in standard media with silica concentrations below 500 μM
  typical lipid content: 5-10%
pH 9.6, silica loading 10-11 mM for 20 days, then reduced to below 5 mM, loading 2 mM at harvest on the third day
  lipid content: 47 % of the ash-free dry weight of the biomass
